The text below walks through data of PubChem BioAssay AID330 (DTP/NCI, 2004).

“And” between values parts separate entries of the source, which are not always exact repeats. Identical values can stand only once. Inconclusive results and toxic doses are left out.

In the assay the test system is P388 leukemia ip, CD2F1 mice, survival T/C. Briefly: NCI In Vivo Anticancer Drug Screen. Data for tumor model P388 Leukemia (intraperitoneal) in CD2F1 (CDF1) mice. As to conditions: endpoint: median survival time, higher = longer survival. An outline of the steps:
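Mice carrying the transplanted tumor received test compound or vehicle. Survival was recorded in each group, and the value is the treated-group measurement divided by that of the vehicle-treated control group.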

Setting [1] is: dose: 50.0 mg/kg/injection, schedule: Q01DX009 (ip), vehicle: Klucel (hydroxypropylcellulose) (HPC).
Setting [2] is: dose: 100.0 mg/kg/injection, schedule: Q01DX009 (ip), vehicle: Klucel (hydroxypropylcellulose) (HPC).
[3] abbreviates: dose: 200.0 mg/kg/injection, schedule: Q01DX009 (ip), vehicle: Klucel (hydroxypropylcellulose) (HPC).
The mark [4] stands for this setting: dose: 50.0 mg/kg/injection, schedule: Q01DX005 (ip), vehicle: saline with Tween-80.
[5] abbreviates: dose: 100.0 mg/kg/injection, schedule: Q01DX005 (ip), vehicle: saline with Tween-80.
The mark [6] stands for this setting: dose: 200.0 mg/kg/injection, schedule: Q01DX005 (ip), vehicle: saline with Tween-80.
The mark [7] stands for this setting: dose: 50.0 mg/kg/injection, schedule: Q01DX005 (ip), vehicle: Klucel (hydroxypropylcellulose) (HPC).
Setting [8] is: dose: 100.0 mg/kg/injection, schedule: Q01DX005 (ip), vehicle: Klucel (hydroxypropylcellulose) (HPC).
Where [9] appears, read: dose: 200.0 mg/kg/injection, schedule: Q01DX005 (ip), vehicle: Klucel (hydroxypropylcellulose) (HPC).
The mark [10] stands for this setting: dose: 60.0 mg/kg/injection, schedule: Q01DX005 (ip), vehicle: saline with Tween-80.
Setting [11] is: dose: 120.0 mg/kg/injection, schedule: Q01DX005 (ip), vehicle: saline with Tween-80.
[12] abbreviates: dose: 240.0 mg/kg/injection, schedule: Q01DX005 (ip), vehicle: saline with Tween-80.
The mark [13] stands for this setting: dose: 50.0 mg/kg/injection, schedule: Q01DX009 (ip), vehicle: saline.
[14] abbreviates: dose: 100.0 mg/kg/injection, schedule: Q01DX009 (ip), vehicle: saline.
Setting [15] is: dose: 200.0 mg/kg/injection, schedule: Q01DX009 (ip), vehicle: saline.
The mark [16] stands for this setting: dose: 50.0 mg/kg/injection, schedule: Q01DX009 (ip), vehicle: saline with Tween-80.
[17] abbreviates: dose: 100.0 mg/kg/injection, schedule: Q01DX009 (ip), vehicle: saline with Tween-80.
Where [18] appears, read: dose: 200.0 mg/kg/injection, schedule: Q01DX009 (ip), vehicle: saline with Tween-80.

On to `CO/C=C(\C(=O)OC)c1ccccc1`, for which the T/C under setting [1] was 100 % of control, the T/C under setting [2] was 106 % of control and the T/C under setting [3] was 106 % of control.

Regarding `CCN(CC)CCOc1ccc(Cl)c(Cl)c1`, the T/C by setting is: under setting [4], 101 % of control; under setting [5], 106 % of control; under setting [6], 106 % of control.

In the case of `Nc1ncnc2c1ncn2C[c-]1[c-][c-][c-][c-]1.[Fe].[c-]1[c-][c-][cH-][c-]1`, the T/C by setting is: under setting [7], 94 % of control; under setting [8], 94 % of control; under setting [9], 100 % of control.

In the case of `Cc1cc(C)cc(C(N)=O)c1`, the T/C runs as follows: (dose: 100.0 mg/kg/injection, schedule: Q04DX003 (ip), vehicle: saline) 96 % of control; (dose: 200.0 mg/kg/injection, schedule: Q04DX003 (ip), vehicle: saline) 99 % of control.

On to `CC(C)CC(NC(=O)CCNC(=O)OCc1ccccc1)C(=O)O` (stereo unspecified), for which the T/C is, setting by setting: under setting [7], 100 % of control; under setting [8], 101 % of control; under setting [9], 91 % of control.

For `O=C(COc1ccc(Cl)cc1Cl)NCCN1CCCCC1`, the T/C runs as follows: under setting [1], 107 % of control; under setting [2], 100 % of control; under setting [3], 100 % of control.

Regarding `O=c1[nH]nc(-c2ccc3c(c2)OCO3)o1`, the T/C by setting is: (dose: 32.5 mg/kg/injection, schedule: Q01DX009 (ip), vehicle: Klucel (hydroxypropylcellulose) (HPC)) 105 % of control; (dose: 65.0 mg/kg/injection, schedule: Q01DX009 (ip), vehicle: Klucel (hydroxypropylcellulose) (HPC)) 95 % of control; (dose: 130.0 mg/kg/injection, schedule: Q01DX009 (ip), vehicle: Klucel (hydroxypropylcellulose) (HPC)) 95 % of control.

As to `CNC(=S)N/N=C(C)/C=C/c1ccc(OC)cc1`, the T/C is 104 % of control (dose: 100.0 mg/kg/injection, schedule: Q04DX002 (ip), vehicle: Klucel (hydroxypropylcellulose) (HPC)); 100 % of control (dose: 200.0 mg/kg/injection, schedule: Q04DX002 (ip), vehicle: Klucel (hydroxypropylcellulose) (HPC)); 91 % of control (dose: 400.0 mg/kg/injection, schedule: Q04DX002 (ip), vehicle: Klucel (hydroxypropylcellulose) (HPC)).

On to `COC(=O)c1c(-c2ccc3c(c2)OCO3)cn(C)c1C`, for which the T/C is, setting by setting: under setting [4], 97 % of control; under setting [5], 91 % of control; under setting [6], 87 % of control.

Regarding `CCC12CN3CCc4c([nH]c5ccccc45)C(C(=O)OC)(c4cc5c(cc4OC)N(C)C4C(O)(C(=O)OC)C(OC(C)=O)C6(CC)C=CCN7CCC54C76)CC(C3=O)C1O2` (stereo unspecified), the T/C (dose: 4.0 mg/kg/injection, schedule: Q01DX001 (ip), vehicle: water) is 118 % of control; the T/C (dose: 32.0 mg/kg/injection, schedule: Q01DX001 (ip), vehicle: water) is 116 % of control; the T/C (dose: 64.0 mg/kg/injection, schedule: Q01DX001 (ip), vehicle: water) is 169 % of control.

As to `Cc1n[nH]c(=O)c(N)c1-c1cc(-c2ccccc2)n[nH]1`, the T/C is, setting by setting: under setting [10], 91 % of control; under setting [11], 94 % of control; under setting [12], 93 % of control.

`CN1c2ccc(Br)c[c]2[Sn]([CH3])([CH3])[c]2cc(Br)ccc21`: the T/C by setting is: under setting [10], 99 % of control; under setting [11], 100 % of control; under setting [12], 104 % of control.

As to `CCCCCCCCCCCCCCCC(=O)N(CCCCN(C)C)CCCCN(C)C`, the T/C was 86 % of control and 95 % of control (dose: 1.0 mg/kg/injection, schedule: Q01DX009 (ip), vehicle: saline); 97 % of control (dose: 2.0 mg/kg/injection, schedule: Q01DX009 (ip), vehicle: saline); 97 % of control (dose: 4.0 mg/kg/injection, schedule: Q01DX009 (ip), vehicle: saline); 103 % of control (dose: 8.0 mg/kg/injection, schedule: Q01DX009 (ip), vehicle: saline).

On to `O=P1(c2ccccc2)OCC2=C(c3ccccc3)CC2=C1c1ccccc1` (stereo unspecified), for which the T/C under setting [1] is 105 % of control, the T/C under setting [2] is 103 % of control and the T/C under setting [3] is 105 % of control.

As for `O=c1[nH]c(=S)ccn1C1OC(CO)C(O)C1O` (stereo unspecified), the T/C is, setting by setting: under setting [13], 97 % of control; under setting [14], 101 % of control; under setting [15], 93 % of control.

In the case of `C=CC(=O)OCCOCN(COCCOC(=O)C=C)c1nc(N(COCCOC(=O)C=C)COCCOC(=O)C=C)nc(N(COCCOC(=O)C=C)COCCOC(=O)C=C)n1`, the T/C runs as follows: under setting [4], 99 % of control; under setting [5], 107 % of control.

As to `Cc1cc(N(c2ccc([N+](=O)[O-])cc2)S(C)(=O)=O)c(C)cc1C=O`, the T/C reads like this: (dose: 25.0 mg/kg/injection, schedule: Q01DX009 (ip), vehicle: saline with Tween-80) 101 % of control; under setting [16], 99 % of control; under setting [17], 98 % of control.

For the compound `Nc1cc(Cl)c(Cl)c(Cl)c1N`, the T/C is, setting by setting: (dose: 12.5 mg/kg/injection, schedule: Q01DX009 (ip), vehicle: saline) 106 % of control; (dose: 25.0 mg/kg/injection, schedule: Q01DX009 (ip), vehicle: saline) 104 % of control; under setting [16], 105 % of control; under setting [13], 103 % of control; under setting [17], 105 % of control; under setting [14], 105 % of control and 93 % of control. Further, the T/C reads like this: under setting [18], 102 % of control; under setting [15], 123 % of control and 93 % of control and 94 % of control.

Consider `CC1C=CCC2C(=O)c3cccc([N+](=O)[O-])c3C(=O)C12` (stereo unspecified), for which the T/C is, setting by setting: under setting [7], 100 % of control; under setting [8], 96 % of control; under setting [9], 92 % of control.

For `COc1ccc(C(c2cc3c(cc2O)OCO3)N2CCOCC2)cc1OC` (stereo unspecified), the T/C under setting [10] was 101 % of control, the T/C under setting [11] was 109 % of control and the T/C under setting [12] is 111 % of control.

For `CCNC(CC)CCCNc1cc(OC)cc2cccnc12` (stereo unspecified), the T/C is, setting by setting: (dose: 6.25 mg/kg/injection, schedule: Q01DX005 (ip), vehicle: saline with Tween-80) 106 % of control; (dose: 12.5 mg/kg/injection, schedule: Q01DX005 (ip), vehicle: saline with Tween-80) 98 % of control; (dose: 25.0 mg/kg/injection, schedule: Q01DX005 (ip), vehicle: saline with Tween-80) 102 % of control.

In the case of `Cn1c(-c2ccc3c(c2)OCO3)cc(=O)c2ccccc21`, the T/C reads like this: (dose: 30.0 mg/kg/injection, schedule: Q01DX005 (ip), vehicle: saline with Tween-80) 97 % of control; under setting [10], 92 % of control; under setting [11], 92 % of control.

With `CCCN(CCC)C(=O)CN(C=O)c1ncc([N+](=O)[O-])s1`, the T/C (dose: 25.0 mg/kg/injection, schedule: Q01DX001 (ip), vehicle: saline) is 104 % of control; the T/C (dose: 50.0 mg/kg/injection, schedule: Q01DX001 (ip), vehicle: saline) was 108 % of control; the T/C (dose: 100.0 mg/kg/injection, schedule: Q01DX001 (ip), vehicle: saline) was 107 % of control.

Consider `COC(=O)c1nnc(C(=O)OC)c2c1[nH]c1ccccc12`, for which the T/C reads like this: under setting [10], 96 % of control; under setting [11], 103 % of control; under setting [12], 94 % of control.

For `COc1ccc(C(c2c(O)cc(C)[nH]c2=O)c2c(O)cc(C)[nH]c2=O)cc1F`, the T/C under setting [16] is 97 % of control, the T/C under setting [17] was 96 % of control and the T/C under setting [18] was 95 % of control.

Consider `CN(C)c1ccc(CN2CCCN(Cc3ccc(N(C)C)cc3)C2c2ccncc2)cc1`, for which the T/C is, setting by setting: under setting [17], 100 % of control; under setting [18], 100 % of control; (dose: 400.0 mg/kg/injection, schedule: Q01DX009 (ip), vehicle: saline with Tween-80) 100 % of control.

Consider `CC12CC(c3ccccc3N1)C1CC2(C)Nc2ccccc21`, for which the T/C was 95 % of control under setting [7], 100 % of control under setting [8] and 102 % of control under setting [9].

On to `ClC(c1ccccc1)C1(Cl)C=c2ccccc2=C1` (stereo unspecified), for which the T/C was 109 % of control under setting [2]; 100 % of control (dose: 100.0 mg/kg/injection, schedule: Q04DX003 (ip), vehicle: Klucel (hydroxypropylcellulose) (HPC)); 109 % of control under setting [3]; 104 % of control (dose: 200.0 mg/kg/injection, schedule: Q04DX003 (ip), vehicle: Klucel (hydroxypropylcellulose) (HPC)); 113 % of control (dose: 400.0 mg/kg/injection, schedule: Q01DX009 (ip), vehicle: Klucel (hydroxypropylcellulose) (HPC)); 109 % of control (dose: 400.0 mg/kg/injection, schedule: Q04DX003 (ip), vehicle: Klucel (hydroxypropylcellulose) (HPC)).
